Source: BindingDB's records for doi:10.1021/jm980718d (University of Massachusetts Medical Center, 1999)

How the values were obtained:
[1] = molecular target: Uracil-DNA glycosylase (Human herpesvirus 1) (UniProt P10186); assay: Inhibitory potency against HSV-1 Uracil-DNA glycosylase
[2] = molecular target: Uracil-DNA glycosylase (Human herpesvirus 1) (UniProt P10186); assay: Inhibitory potency against HSV-1 UDG (Herpes Simplex virus type-I Uracil DNA glycosylase)

Uracil-DNA glycosylase (Human herpesvirus 1), sequence (P10186 whole entry, looked up): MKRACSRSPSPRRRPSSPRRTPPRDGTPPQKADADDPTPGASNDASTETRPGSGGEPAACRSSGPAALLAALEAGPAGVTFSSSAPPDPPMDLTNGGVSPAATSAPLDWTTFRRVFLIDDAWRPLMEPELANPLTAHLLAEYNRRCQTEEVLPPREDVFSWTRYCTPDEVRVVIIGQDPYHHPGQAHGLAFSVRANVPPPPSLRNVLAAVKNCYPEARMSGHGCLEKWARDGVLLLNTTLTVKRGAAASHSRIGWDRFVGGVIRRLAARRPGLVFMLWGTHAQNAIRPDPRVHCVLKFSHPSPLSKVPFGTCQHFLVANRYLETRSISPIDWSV

Row | IC50 [1] | IC50 [2] | Structure (SMILES)
1 | – | > 100 µM | CCCCCCc1ccc(Nc2cc(=O)[nH]c(=O)n2CCCOC)cc1 [6-(4-Hexyl-phenylamino)-1-(3-methoxy-propyl)-1H-pyrimidine-2,4-dione]
2 | – | 30 µM | CCCCCCc1ccc(Nc2cc(=O)[nH]c(=O)[nH]2)cc1 [6-(4-Hexyl-phenylamino)-1H-pyrimidine-2,4-dione]
3 | – | 30 µM | CCCCCCOc1ccc(Nc2cc(=O)[nH]c(=O)[nH]2)cc1 [6-(4-Hexyloxy-phenylamino)-1H-pyrimidine-2,4-dione]
4 | 150 µM | – | CCCCCCCCc1ccc(Oc2cc(=O)[nH]c(=O)[nH]2)cc1 [6-(4-Octyl-phenoxy)-1H-pyrimidine-2,4-dione]
5 | 8 µM | – | CCCCCCCCc1ccc(Nc2cc(=O)[nH]c(=O)[nH]2)cc1 [6-(4-Octyl-phenylamino)-1H-pyrimidine-2,4-dione]
6 | 25 µM | – | CCCCCCCCOc1ccc(Nc2cc(=O)[nH]c(=O)[nH]2)cc1 [6-(4-Octyloxy-phenylamino)-1H-pyrimidine-2,4-dione]

Further lines, the molecule ahead of its results:

Row | Structure (SMILES) | IC50 [1] | IC50 [2]
7 | CCCCCCCCc1ccc(Nc2cc(=O)[nH]c(=O)n2CCO)cc1 [1-(2-Hydroxy-ethyl)-6-(4-octyl-phenylamino)-1H-pyrimidine-2,4-dione] | 10 µM | –
8 | CCCCCCCCc1ccc(Nc2cc(=O)[nH]c(=O)n2CCOC)cc1 [1-(2-Methoxy-ethyl)-6-(4-octyl-phenylamino)-1H-pyrimidine-2,4-dione] | 15 µM | –
9 | CCCCCCCCCCc1ccc(Nc2cc(=O)[nH]c(=O)[nH]2)cc1 [6-(4-Decyl-phenylamino)-1H-pyrimidine-2,4-dione] | 35 µM | –
10 | CCc1ccc(Nc2cc(=O)[nH]c(=O)[nH]2)cc1 [6-(4-Ethyl-phenylamino)-1H-pyrimidine-2,4-dione] | – | 500 µM
11 | CCCCCCc1ccc(Nc2cc(=O)[nH]c(=O)n2CCO)cc1 [6-(4-Hexyl-phenylamino)-1-(2-hydroxy-ethyl)-1H-pyrimidine-2,4-dione] | – | 20 µM
12 | CCCCCCc1ccc(Nc2cc(=O)[nH]c(=O)n2CCOC)cc1 [6-(4-Hexyl-phenylamino)-1-(2-methoxy-ethyl)-1H-pyrimidine-2,4-dione] | – | > 100 µM
13 | CCCCCCc1ccc(Nc2cc(=O)[nH]c(=O)n2CCCO)cc1 [6-(4-Hexyl-phenylamino)-1-(3-hydroxy-propyl)-1H-pyrimidine-2,4-dione] | – | 90 µM
